{"source": "paper PMC7756445", "about": "“A Novel Prodrug of a nNOS Inhibitor with Improved Pharmacokinetic Potential” (Chemmedchem, 2020)", "key": {"[1]": {"molecular_target": "T1, bovine eNOS (Bos taurus, UniProt P29473)", "T1 construct": "purchased Cayman Chemicals (Ann Arbor, Michigan, USA)", "assay": "NOS inhibition, L-Arg to L-Cit conversion by HPLC with fluorescence detection", "assay_type": "biochemical", "settings": "at 10 μM", "protocol": "(§1) The amidoxime 2 was evaluated for its in vitro NOS inhibitory activity, by measuring the conversion of L‐Arg to L‐Cit, using a validated HPLC method with fluorescence detection, as previously reported.[ ^39 , ^40 , ^41 ] The human nNOS and iNOS inhibition percent were calculated at 1 μM, while bovine eNOS inhibition was evaluated at 10 μM in order to have an assessment of compound selectivity toward eNOS. Considering the highly conserved primary sequence (>90 %) between the human and bovine eNOS, this latter extremely resembles the human isozyme. In particular, there is only one amino acid variation in a hydrophobic pocket that is on the outside of the heme active site. Therefore the different source of eNOS is usually well accepted and should not affect the inhibitor evaluation. ^[42]\n(§2) Recombinant human iNOS and nNOS, were purchased from Enzo Life Sciences, Inc. (New York, USA), while bovine recombinant eNOS was purchased from Cayman Chemicals (Ann Arbor, Michigan, USA). HPLC analyses were performed using a Waters system composed of a P600 model pump, a 2475 multi‐fluorescence detector, and a 7725i model sample injector (Rheodyne, Cotati, CA, USA) equipped with a 5 μL loop. The column was a XTerra MS C8 (250×4.6 mm i.d., […]; Waters). A column thermostat oven module Igloo‐Cil (Cil Cluzeau Info Labo, France) was used. Chromatograms were recorded on a Fujitsu Siemens Esprimo computer and data were processed by the Empower Pro software (Waters). The appropriate mobile phase was prepared daily, filtered through a 0.45 μm WTP membrane (Whatman, Maidstone, UK), sonicated and degassed before use. Column temperature was kept constant at 20 °C. All assays were performed in triplicate.\n(§3) Enzymes were diluted in 2‐[4‐(2‐hydroxyethyl)piperazin‐1‐yl]ethanesulfonic acid (HEPES) buffer (pH 7.4) to obtain iNOS and nNOS 2.5 μg/mL stock solutions, and eNOS 300 μg/mL stock solution. To measure iNOS activity, 10 μL of iNOS stock solution were added to 80 μL of HEPES buffer at pH 7.4, containing 0.1 mM CaCl2, 1 mM D,L‐dithiothreitol (DTT), 0.5 mg/mL bovine serum albumin (BSA), 10 μM flavin mononucleotide (FMN), 10 μM flavin adenine dinucleotide (FAD), 30 μM tetrahydrobiopterin (BH4), 10 μg/mL calmodulin (CaM) and 10 μM L‐Arg. To measure eNOS and nNOS activities, 25 μL of enzyme stock solution were added to 75 μL of HEPES buffer pH 7.4, containing 2 mM CaCl2, 1 mM DTT, 0.5 mg/mL BSA, 10 μM FMN, 10 μM FAD, 30 μM BH4, 10 μg/mL CaM and 10 μM L‐Arg. Then, 10 μL of a 10 μM (iNOS and nNOS assay) or 100 μM (eNOS assay) solution of the test compound was added to the enzyme assay solution, followed by pre‐incubation of 15 min at 37 °C. The reaction was initiated by the addition of 10 μL of nicotinamide adenine dinucleotide phosphate (NADPH) 7.5 mM (iNOS) or 10 mM (eNOS and nNOS), carried out at 37 °C for 20 min, and stopped by adding 500 μL of ice‐cold CH3CN. The mixture was brought to dryness under vacuum and eventually stored at −20 °C, before the fluorescence derivatization. The o‐phthalaldehyde‐N‐acetylcysteine (OPA/NAC) reagent for fluorescence derivatization was prepared with the molar ratios of 1 : 3, reacting 5 mL of methanolic OPA solution and 20 mL of 0.2 M borate buffer containing 0.1 g of NAC for 90 min to final pH 9.3±0.05. The OPA/NAC solution was stored at 4 °C and saved for no longer than seven days. […] The fluorescence reaction is realized stirring 190 μL of supernatant and 60 μL of OPA/NAC solution for 5 min. […]"}, "[2]": {"molecular_target": "T2, human iNOS (Homo sapiens, UniProt P35228)", "T2 construct": "purchased Enzo Life Sciences, Inc. (New York, USA)", "assay": "NOS inhibition, L-Arg to L-Cit conversion by HPLC with fluorescence detection", "assay_type": "biochemical", "settings": "at 1 μM", "protocol": "as §1, §2, §3"}, "[3]": {"molecular_target": "T3, human nNOS (Homo sapiens, UniProt P29475)", "T3 construct": "purchased Enzo Life Sciences, Inc. (New York, USA)", "assay": "NOS inhibition, L-Arg to L-Cit conversion by HPLC with fluorescence detection", "assay_type": "biochemical", "settings": "read-out: nNOS enzymatic inhibition", "protocol": "as §1, §2, §3"}, "[4]": {"assay": "Log D and log P by shake-flask method", "assay_type": "physicochemical", "settings": "n-octanol/aqueous buffer", "excerpt": "The herein presented amidoxime 2 was designed as prodrug of the amidine 1 to improve membrane permeability and oral bioavailability. In this context, the deepening of the physicochemical properties is essential to obtain a favorable pharmacological profile. Therefore, we investigated the lipophilicity, the passive permeation through the human GI tract through the PAMPA assays, and the chemical and enzymatic stabilities in simulated GI fluids and plasma. […] In this study, the lipophilicity of our compounds was determined by means of the “shake‐flask method” and compared to the corresponding values calculated by the software. ^[43] However, for ionizable compounds, the distribution coefficient (log D) should be used instead of log P in the pH range where ionic species exist. ^[44] In this study, log P and log D were calculated (Table 1).\nThe column was a Waters Symmetry RP‐C18 column (4.6×150 mm, 5 μm). The mobile phase was a mixture of TFA 0.01 M/ACN/(MeOH/THF 90 : 10) 20/52/28 and the flow rate was 0.7 mL/min. The UV detector was set at a length of 254 nm.\nBoth n‐octanol and aqueous buffer (pH 1.4, 6.5 and 9.4) solutions were saturated of each other. 2 mg of tested compound was dissolved in 500 μL of organic phase and mixed with an equal volume of aqueous buffer by repeated inversions of up to 200 times for 5 min and then allowed to stand for 30 min for the phases to fully separate. Thereafter, the respective phases were analyzed by HPLC."}}, "note": "Where two headings read alike, the source gives them in different places.", "data": [{"smiles": "C/C(=N\\O)NC(c1ccccc1)c1ccccc1", "note": "[Compound 2, (1E)‐N‐(diphenylmethyl)‐N′‐hydroxyethanimidamide]", "values": [{"measurement": "eNOS inhibition (in words)", "setting": "[1]", "value": "not able to inhibit"}, {"measurement": "eNOS inhibition (in words)", "setting": "[1]; listed as amidoxime", "value": "inactivity"}, {"measurement": "iNOS inhibition (in words)", "setting": "[2]", "value": "not able to inhibit"}, {"measurement": "iNOS inhibition (in words)", "setting": "[2]; listed as amidoxime", "value": "inactivity"}, {"measurement": "inhibition at 1 µM", "setting": "[3]", "value": 53, "unit": "%"}, {"measurement": "logD", "setting": "[4]; pH 1.4, n-octanol/aqueous buffer pH 1.4, mean ± SD of three, read-out: log D 1.4", "value": -0.16}, {"measurement": "logD", "setting": "[4]; pH 1.4, pH 1.4 to 9.4, range stated in text, read-out: log D values over the pH values tested", "value": "-0.16 to 0.39"}, {"measurement": "logD", "setting": "[4]; pH 6.5, n-octanol/aqueous buffer pH 6.5, mean ± SD of three, read-out: log D 6.5", "value": 0.29}, {"measurement": "logD", "setting": "[4]; pH 9.4, n-octanol/aqueous buffer pH 9.4, mean ± SD of three, read-out: log D 9.4", "value": 0.39}, {"measurement": "logP", "setting": "[4]; shake-flask, as free amine, mean ± SD of three", "value": 3.24}]}]}
